Read-outs that look alike come from different tables or passages of the source. One block for each molecule: values may come before it.
Assays:
H1 histamine receptor = test: RWG biosensor DMR assay: forskolin pretreatment, then histamine-induced Gq response; type: cell-based, Human; conditions: quiescent A431 cells; forskolin pretreatment 1 h, then 100 nM histamine; read-out: IC50 of forskolin pretreatment, partial inhibition of histamine-induced response
Procedure: (§1) Cell culture—Human epidermoid carcinoma A431 cells (American Type Cell Culture) were grown in Dulbecco's modified Eagle's medium (DMEM) supplemented with 10% fetal bovine serum (FBS), 4.5 g/liter glucose, 2 mM glutamine, and antibiotics. About 1.8×10^4 cells at passage 3 to 8 suspended in 50 μL of the DMEM medium containing 10% FBS were placed in each well of a 384-well microplate, and were cultured at 37° C. under air/5% CO2 for about 1 day, followed by about 20 hr starvation through continuously culturing in the serum-free DMEM.
(§2) Optical biosensor system and cell assays—CORNING® EPIC® wavelength interrogation system was used. […] Once stable temperature is reached (typically within 1 hr), a sensor microplate is transferred by the robotics into the plate holder directly above the detection system, while a source plate is moved to an appropriate compartment so that it is readily addressable by the on-board liquid handling unit. […]
(§3) For kinetic assays, the cells were washed with HBSS (Hanks Balanced Salt Solution with 20 mM HEPES) buffer. After 1 hour incubation within the detection system, the sensor plate was scanned and a baseline response was recorded. Then, compound solutions were transferred into the sensor plate using the on-board liquid handling system, and the cell responses were then recorded for another period of time. […]

adenylate cyclase [1] = conditions: read-out: IC50 of histamine pretreatment against the forskolin response, quiescent A431 cells, then 1 μM forskolin, slight inhibition
Procedure: as §1, §2, §3

adenylate cyclase [2] = test: RWG biosensor DMR assay: NECA pretreatment, then forskolin-induced response; type: cell-based, Human; conditions: quiescent A431 cells; NECA pretreatment 1 h, then 1 μM forskolin; read-out: IC50 of NECA pretreatment against the forskolin-induced response
Procedure: (§4) The plate lid was handled automatically by the robotics.
Similarly, pretreatment of A431 cells with various concentrations of NECA for 1 h desensitizes adenylate cyclase and attenuates the forskolin-induced responses (FIG. 3B). […] Although not limited by theory a possible mechanism of cross-talk between these two pathways is that upon activation of adenylate cyclase by forskolin, cAMP is produced and activates PKA. PKA in turn may phosphorylate the Gs receptors, and cause complete inhibition of the Gs-mediated response. Accordingly, FIGS. 3A and 3B, respectively, illustrate: 3A) forskolin pretreatment on the NECA-induced Gs response; and 3B) of the effects NECA pretreatment on forskolin-induced responses in quiescent A431 cells.

[3] = tested on: histamine receptor subtype 1; test: RWG biosensor DMR assay: U73122 pretreatment, then histamine-induced DMR signal; type: cell-based, Human; conditions: quiescent A431 cells
Excerpt: as §4
Histamine is a natural agonist for endogenously expressed Gq-coupled receptor histamine receptor subtype 1 in A431 cells.

- IC50 (H1 histamine receptor): ~184 nM
Structure (SMILES): C=C[C@@]1(C)CC(=O)[C@]2(O)[C@@]3(C)[C@@H](O)CCC(C)(C)[C@@H]3[C@H](O)[C@H](OC(C)=O)[C@@]2(C)O1 [forskolin, Forskolin]

Structure (SMILES): NCCc1c[nH]cn1 [histamine, Histamine]
- IC50 (adenylate cyclase [1]): 301 nM

Structure (SMILES): CCNC(=O)[C@H]1O[C@@H](n2cnc3c(N)ncnc32)[C@H](O)[C@@H]1O [NECA, N-ethyladenosine-5′-uronic acid]
- IC50 (adenylate cyclase [2]): 1.3 nM

Structure (SMILES): COc1ccc2c(c1)CC[C@@H]1[C@@H]2CC[C@]2(C)[C@@H](NCCCCCCN3C(=O)C=CC3=O)CC[C@@H]12 [U73122, 1-[6-[[17β-3-methoxyestra-1,3,5(10)-trien-17-yl]amino]hexyl]-1H-pyrrole-2,5-dione]
- effect of U73122 pretreatment on histamine-induced DMR response ([3]; U73122 0-228 μM, then 1,000 nM histamine): dose-dependent inhibition of the histamine-induced DMR response
- effect of U73122 at high doses on histamine response (P-DMR amplitude) ([3]; high doses of U73122, 1,000 nM histamine): completely inhibit the histamine response

Reference: US8426148B2, “Label-free methods using a resonant waveguide grating biosensor to determine GPCR signaling pathways” (Corning Incorporated, priority 2007, dated 2013)
